Assay results published in patent US20110071148A1, “COMPOUNDS AS THE ESTROGEN RELATED RECEPTORS MODULATORS AND THE USES THEREOF” (Guangzhou Institute of Biomedicine and Health, Chinese …, priority 2008, published 2011).

Key:
[1] = molecular target: T1, GAL-hERRα (human ERRalpha ligand binding domain) (Homo sapiens, UniProt P11474); assay: GAL4-hERRα ligand binding domain luciferase reporter assay (UASgx4-TK-Luc with CMV-PGC-1α) in HeLa cells; format: cell-based; conditions: for expression of reporter genes modulated by ERRα: HeLa cell
T1 construct: expressed in transfected cells; host or cells: HeLa cells, transient lipofection
T1 sequence (P11474 193-421 limits assumed): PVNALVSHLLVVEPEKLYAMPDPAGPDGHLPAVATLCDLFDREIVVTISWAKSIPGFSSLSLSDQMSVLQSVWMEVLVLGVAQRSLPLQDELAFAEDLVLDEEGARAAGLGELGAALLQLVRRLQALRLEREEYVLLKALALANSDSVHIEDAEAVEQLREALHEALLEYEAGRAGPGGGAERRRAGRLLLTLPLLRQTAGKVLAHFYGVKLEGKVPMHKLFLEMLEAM
T1 sequence (P04386 1-147 partner limits assumed): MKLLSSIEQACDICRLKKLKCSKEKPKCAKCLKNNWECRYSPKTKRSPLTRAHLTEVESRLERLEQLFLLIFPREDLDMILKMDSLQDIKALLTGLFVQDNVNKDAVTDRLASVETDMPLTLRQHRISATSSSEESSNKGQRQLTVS
T1 sequence (O70343 whole entry partner, the tested form may be a part): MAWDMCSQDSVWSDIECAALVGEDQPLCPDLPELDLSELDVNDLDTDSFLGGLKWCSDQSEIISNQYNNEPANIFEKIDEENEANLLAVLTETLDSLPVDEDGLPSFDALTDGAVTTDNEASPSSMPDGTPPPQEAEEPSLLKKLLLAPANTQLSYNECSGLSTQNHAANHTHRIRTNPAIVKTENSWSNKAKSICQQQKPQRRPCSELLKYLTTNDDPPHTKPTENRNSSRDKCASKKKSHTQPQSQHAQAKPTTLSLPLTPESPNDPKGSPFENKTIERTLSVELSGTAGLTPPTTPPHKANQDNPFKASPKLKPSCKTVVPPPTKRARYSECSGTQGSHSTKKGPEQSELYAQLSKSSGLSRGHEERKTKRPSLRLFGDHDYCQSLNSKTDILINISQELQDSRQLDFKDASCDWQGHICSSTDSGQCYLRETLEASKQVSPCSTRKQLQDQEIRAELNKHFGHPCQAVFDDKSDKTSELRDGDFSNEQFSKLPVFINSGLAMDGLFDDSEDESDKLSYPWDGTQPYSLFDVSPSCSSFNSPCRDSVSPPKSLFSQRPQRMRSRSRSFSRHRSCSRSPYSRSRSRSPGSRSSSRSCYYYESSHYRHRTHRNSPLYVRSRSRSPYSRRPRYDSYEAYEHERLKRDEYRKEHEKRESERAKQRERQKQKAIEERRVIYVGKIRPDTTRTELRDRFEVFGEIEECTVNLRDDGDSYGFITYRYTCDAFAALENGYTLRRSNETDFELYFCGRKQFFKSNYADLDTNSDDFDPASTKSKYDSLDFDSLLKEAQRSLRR
Protocol: To test the effect of the compounds on ERRα and other nuclear hormone receptors, HeLa cells were transiently transfected with expression vectors for the receptors along with appropriate reporter constructs according to methods known in the art. Suitable reporter gene constructs are well known to skilled workers in the fields of biochemistry and molecular biology. Other vectors known in the art can be used in the methods of the present invention.
HeLa cells for the activation assays were grown in Dulbecco's modified Eagle's medium supplemented with 10% resin charcoal-stripped fetal bovine serum at 37° C. in 5% CO2. One day prior to transfection, cells were plated to 50-80% confluence to using phenol red free DMEM-FBS. The cells were transiently transfected by lipofection but other methods of transfection of DNA into cells can be utilized without deviating from the spirit of the invention. Luciferase reporter construct UASgx4-TK-Luc and cytomegalovirus-driven expression vector p-GAL, GAL-hERRα, GAL-L-hERRβ or Gal-mERRγ were added with CMV-PGC-1α. The cells were treated for approximately 24 hours with phenol red free DMEM-FBS containing 0.01% DMSO (control) or 0.01% DMSO with increasing concentrations of DK compounds.

[2] = tested on: PGC1α-promoter reporter gene driven by ERRα; assay: PGC1α-promoter luciferase reporter assay driven by ERRα in HeLa cells; format: cell-based, human; conditions: about 24 hours, increasing concentrations, FIG. 4
Text: HeLa were transiently transfected with the pGL3-promoter (Promega) derivative pGL3-PGC1α-promoter and expression vector for ERRα. The Renilla-Luciferase pRL-CMV Vector (Promega) was included as a control for transfection efficiency. The full length human ERRα was cloned into the expression vector pCMV. The pGL3-PGC1α-promoter was generated by cloning an insert derived from a PCR reaction using human genomic DNA as template and primers based on the 2.6 kbp upstream sequence of the PGC1α transcriptional start site.
HeLa cells for the activation assays were grown in Dulbecco's modified Eagle's medium supplemented with 10% fetal bovine serum at 37° C. in 5% CO2. One day prior to transfection, cells were plated to 50-80% confluence using DMEM-FBS. The cells were transiently transfected by lipofection but other methods of transfection of DNA into cells can be utilized without deviating from the spirit of the invention. Luciferase reporter construct pGL3-PGC1α-promoter and cytomegalovirus-driven expression vector pCMV or pCMV -hERRα were added. The cells were treated for approximately 24 hours with DMEM-FBS containing 0.01% DMSO (control) or 0.01% DMSO with increasing concentrations of DK compounds.

[3] = Oral glucose tolerance test in high-fat-diet mice; format: in vivo, C57BL/J6 mice; conditions: compared to rosiglitazone 10 mg/kg/day
Protocol: Seven weeks old male C57BL/J6 mice were either fed chow diet or a high-fat-diet with 60% calories from lard for 10 weeks. Compounds were administered to animals by gavage for two weeks at different doses. Six groups of animals (n=5) were administered with either vehicle, 10 mg/kg/day rosiglitazone, 0.5 mg/kg/day DK1, 5 mg/kg/day DK1, 0.5 mg/kg/day DK3, or 5 mg/kg/day DK3. Animals were then orally fed glucose. Blood samples were withdrawn at time 0, 15, 30, 60 and 120 min. Blood glucose level was measured by monitor (Accu-chek Advantage, Roche). The changes in blood glucose level were plotted against time and the areas under the curve were calculated for the different groups.

[4] = Liver weight and fatty liver in high-fat-diet mice; format: in vivo, C57BL/J6 mice; conditions: for liver weight: compared to rosiglitazone 10 mg/kg/d
Protocol: Seven weeks old male C57BL/J6 mice were either fed chow diet or a high-fat-diet with 60% calories from lard for 10 weeks. Compounds were administered to animals by gavage for two weeks at different doses. Six groups of animals (n=5) were administered with either vehicle, 10 mg/kg/day rosiglitazone, 0.5 mg/kg/day DK1, 5 mg/kg/day DK1, 0.5 mg/kg/day DK3, or 5 mg/kg/day DK3. Total body weight and livers wet weight from animals were measured. Liver samples to from animals were prepared by histological methods.

[5] = 0.5 mg/kg/day by gavage for two weeks
[6] = 5 mg/kg/day by gavage for two weeks

In the case of `COc1ccc2c(=O)n(C)c(-c3ccccc3)nc2c1` [Compound 1, 7-methoxy-3-methyl-2-phenylquinazolin-4(3H)-one], the “expression of reporter genes modulated by ERRα” value (from here on “expression”) [1] is reported as “effectively enhance”, the “reversal of the suppressive effect of ERRα specific inverse agonist XCT-790” value ([1]; HeLa cells, FIG. 2) is reported as “dose-dependently reverses” and the “activity of GAL-hERRα on reporter construct UASgx4-TK-Luc” value ([1]; HeLa cells, in the presence of CMV-PGC-1α, increasing concentrations) is reported as “dose-dependently enhances”. The “PGC1α-promoter reporter gene driven by ERRα” value [2] was “dose-dependent enhancement”, the “area under the curve of the oral glucose tolerance test” value [3, 5] was “reduced” and the “area under the curve of the oral glucose tolerance test” value [3, 6] was “reduced”. The liver weight [4, 5] was “did not increase”, the liver weight [4, 6] was “did not increase” and the “extent of fatty liver induced by high-fat-diet” value ([4]; gavage for two weeks, histology, FIGS. 7 and 8) was “reduce the extent of fatty liver”.
In the case of `COc1ccc2c(=O)n(C)c(-c3ccc(F)cc3)nc2c1` [Compound 3, 2-(4-fluorophenyl)-7-methoxy-3-methylquinazolin-4(3H)-one], the “expression” value [1] is reported as “effectively enhance”.
For `COc1ccc2c(=O)n(C)c(-c3ccc(Br)cc3)nc2c1` [Compound 4, 2-(4-bromophenyl)-7-methoxy-3-methylquinazolin-4(3H)-one], the “expression” value [1] was “effectively enhance”.
